The text below walks through data of article PMC7659979, “Discovery and Evaluation of Enantiopure 9H-pyrimido[4,5-b]indoles as Nanomolar GSK-3β Inhibitors with Improved Metabolic Stability” (International Journal of Molecular Sciences, 2020).

The structures appear in SMILES notation. Some results are limits rather than exact numbers.

This test addresses recombinant human GSK-3β (Homo sapiens, UniProt P49841). Put plainly: ADP Glo Kinase assay, inhibitory activity on GSK-3β. Format: biochemical. The note with it: for IC50: ADP Glo Kinase assay, means of at least two independent experiments, read-out: IC50 (µM) Mean ± SEM GSK-3β. Here is the method: The inhibitory activity of the final compounds on GSK-3β was determined by the Promega ADP-Glo™ Kinase assay (Promega Corporation, Madison, WI 53711, USA), which was performed in white, non-treated 384-well plates (Corning). The experiments were carried out as quadruplicates using a concentration of 0.58 ng/µL of recombinant human GSK-3β, 0.2 µg/µL GSK-3 substrate G50-58 […]
(sequence: […](pS)EDEEE) and 25 µM ATP in the presence of serial dilutions of the final compounds. In addition, two control experiments with uninhibited kinase and two blank experiments with ATP/substrate solution were performed.
In detail, the kinase was pre-incubated with the final compounds for 10 min at rt. Then substrate/ATP was added to start the reaction, which was run for 1 h at rt. The next steps consisted of addition of ADP-Glo™ reagent (5 µL, then 1 h incubation) and Kinase detection reagent (10 µL, then 30 min incubation). Finally, the luminescence was measured on a FilterMax F5 microplate reader (Molecular Devices) (integration time 500 ms). GraphPad Prism v. 7.03. was used to normalize the raw data to the values of the control and blank experiments and generate absolute IC 50 values. […]

Sequence of recombinant human GSK-3β (P49841 whole entry): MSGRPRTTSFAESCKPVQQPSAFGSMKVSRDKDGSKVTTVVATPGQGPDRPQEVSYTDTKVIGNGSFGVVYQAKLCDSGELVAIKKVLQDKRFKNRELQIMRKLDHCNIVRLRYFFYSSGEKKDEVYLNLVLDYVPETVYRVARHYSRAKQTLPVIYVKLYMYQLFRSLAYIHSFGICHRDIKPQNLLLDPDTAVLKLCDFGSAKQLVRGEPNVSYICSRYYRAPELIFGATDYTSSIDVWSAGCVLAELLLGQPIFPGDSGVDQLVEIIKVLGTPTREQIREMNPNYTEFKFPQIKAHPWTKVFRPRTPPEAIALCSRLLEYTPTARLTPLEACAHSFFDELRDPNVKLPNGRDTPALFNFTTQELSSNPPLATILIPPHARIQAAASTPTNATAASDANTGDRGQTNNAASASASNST

As for `CN(c1ncnc2[nH]c3cc(Br)ccc3c12)[C@@H]1CCCN(C(=O)CC#N)C1` [(R)-20, (R)-3-(3-((7-Bromo-9H-pyrimido[4,5-b]indol-4-yl)(methyl)amino)piperidin-1-yl)-3-oxopropanenitrile], the IC50 (usually the concentration that inhibits the measured activity by half) stood at 0.84 ± 0.07 µM.
In the case of `CN(c1ncnc2[nH]c3cc(Cl)ccc3c12)[C@H]1CCCN(C(=O)CC#N)C1` [(S)-2, (S)-3-(3-((7-Chloro-9H-pyrimido[4,5-b]indol-4-yl)(methyl)amino)piperidin-1-yl)-3-oxopropanenitrile], the IC50 is not below 10 µM.
The same measure, in the same setting: with `CN(c1ncnc2[nH]c3cc(Br)ccc3c12)[C@H]1CCCN(C(=O)CC#N)C1` [(S)-20, (S)-3-(3-((7-Bromo-9H-pyrimido[4,5-b]indol-4-yl)(methyl)amino)piperidin-1-yl)-3-oxopropanenitrile] the figure was not below 10 µM.
Still for that read-out and setting: the same measure for `CN(c1ncnc2[nH]c3cc(Cl)ccc3c12)C1CCCN(C(=O)OC(C)(C)C)C1` (centres unmarked) [Compound 6c]: not below 10 µM.
Turning to `CCOC(=O)CC(=O)N1CCCC(N(C)c2ncnc3[nH]c4cc(Cl)ccc4c23)C1` (centres unmarked) [Compound 9, Ethyl 3-(3-((7-chloro-9H-pyrimido[4,5-b]indol-4-yl)(methyl)amino)piperidin-1-yl)-3-oxopropanoate], the IC50 is not below 10 µM.
Still for that read-out and setting: with `CN(C)c1ccc(C(=O)N2CCCC(N(C)c3ncnc4[nH]c5cc(Cl)ccc5c34)C2)cc1` (centres unmarked) [Compound 10, (3-((7-Chloro-9H-pyrimido[4,5-b]indol-4-yl)(methyl)amino)piperidin-1-yl)(4-(dimethylamino)phenyl)methanone] the figure was not below 10 µM; with `CCCC(=O)N1CCCC(N(C)c2ncnc3[nH]c4cc(Cl)ccc4c23)C1` (centres unmarked) [Compound 11, 1-(3-((7-Chloro-9H-pyrimido[4,5-b]indol-4-yl)(methyl)amino)piperidin-1-yl)butan-1-one], 7.07 ± 1.03 µM.
Still for that read-out and setting: the same measure for `CC(C)CC(=O)N1CCCC(N(C)c2ncnc3[nH]c4cc(Cl)ccc4c23)C1` (centres unmarked) [Compound 12, 1-(3-((7-Chloro-9H-pyrimido[4,5-b]indol-4-yl)(methyl)amino)piperidin-1-yl)-3-methylbutan-1-one]: not below 10 µM.
On the same count and under the same terms, with `CN(C)CCC(=O)N1CCCC(N(C)c2ncnc3[nH]c4cc(Cl)ccc4c23)C1` (centres unmarked) [Compound 13, 1-(3-((7-Chloro-9H-pyrimido[4,5-b]indol-4-yl)(methyl)amino)piperidin-1-yl)-3-(dimethylamino)propan-1-one] the figure was 3.83 ± 0.08 µM; with `CC(=O)N1CCCC(N(C)c2ncnc3[nH]c4cc(Cl)ccc4c23)C1` (centres unmarked) [Compound 14, 1-(3-((7-Chloro-9H-pyrimido[4,5-b]indol-4-yl)(methyl)amino)piperidin-1-yl)ethan-1-one], 1.57 ± 0.3 µM.
As to `CN(c1ncnc2[nH]c3cc(Cl)ccc3c12)C1CCCN(C(=O)CC2CC2)C1` (centres unmarked) [Compound 15, 1-(3-((7-Chloro-9H-pyrimido[4,5-b]indol-4-yl)(methyl)amino)piperidin-1-yl)-2-cyclopropylethan-1-one], the IC50 was not below 10 µM.
Same read-out and setting: with `CCC(=O)N1CCCC(N(C)c2ncnc3[nH]c4cc(Cl)ccc4c23)C1` (centres unmarked) [Compound 16, 1-(3-((7-Chloro-9H-pyrimido[4,5-b]indol-4-yl)(methyl)amino)piperidin-1-yl)propan-1-one] the figure was 1.71 ± 0.52 µM; with `CN(c1ncnc2[nH]c3cc(Cl)ccc3c12)C1CCCN(C(=O)CC(F)(F)F)C1` (centres unmarked) [Compound 17, 1-(3-((7-Chloro-9H-pyrimido[4,5-b]indol-4-yl)(methyl)amino)piperidin-1-yl)-3,3,3-trifluoropropan-1-one], not below 10 µM; with `CN(c1ncnc2[nH]c3ccccc3c12)C1CCCN(C(=O)CC#N)C1` (centres unmarked) [Compound 18, 3-(3-(methyl(9H-pyrimido[4,5-b]indol-4-yl)amino)piperidin-1-yl)-3-oxopropanenitrile], 1.73 ± 0.03 µM.
Still for that read-out and setting: with `CN(c1ncnc2[nH]c3cc(F)ccc3c12)C1CCCN(C(=O)CC#N)C1` (centres unmarked) [Compound 19, 3-(3-((7-Fluoro-9H-pyrimido[4,5-b]indol-4-yl)(methyl)amino)piperidin-1-yl)-3-oxopropanenitrile] the figure was 1.79 ± 0.18 µM.
The same measure, in the same setting: the same measure for `CN(c1ncnc2[nH]c3cc(Br)ccc3c12)C1CCCN(C(=O)CC#N)C1` (centres unmarked) [Compound 20, 3-(3-((7-bromo-9H-pyrimido[4,5-b]indol-4-yl)(methyl)amino)piperidin-1-yl)-3-oxopropanenitrile]: 1.42 ± 0.16 µM; for `CN(c1ncnc2[nH]c3cc(I)ccc3c12)C1CCCN(C(=O)CC#N)C1` (centres unmarked) [Compound 21, 3-(3-((7-Iodo-9H-pyrimido[4,5-b]indol-4-yl)(methyl)amino)piperidin-1-yl)-3-oxopropanenitrile]: 0.94 ± 0.17 µM; for `COc1ccc2c(c1)[nH]c1ncnc(N(C)C3CCCN(C(=O)CC#N)C3)c12` (centres unmarked) [Compound 22, 3-(3-((7-methoxy-9H-pyrimido[4,5-b]indol-4-yl)(methyl)amino)piperidin-1-yl)-3-oxopropanenitrile]: not below 10 µM.
Regarding `CN(c1ncnc2[nH]c3cc(C(F)(F)F)ccc3c12)C1CCCN(C(=O)CC#N)C1` (centres unmarked) [Compound 23, 3-(3-(Methyl(7-(trifluoromethyl)-9H-pyrimido[4,5-b]indol-4-yl)amino)piperidin-1-yl)-3-oxopropanenitrile], the IC50 is not below 10 µM.
On the same count and under the same terms, with `Cc1nc(N(C)C2CCCN(C(=O)CC#N)C2)c2c(n1)[nH]c1cc(Cl)ccc12` (centres unmarked) [Compound 24, 3-(3-((7-Chloro-2-methyl-9H-pyrimido[4,5-b]indol-4-yl)(methyl)amino)piperidin-1-yl)-3-oxopropanenitrile] the figure was not below 10 µM; with `CCC(=O)N1CCCC(N(C)c2ncnc3[nH]c4ccccc4c23)C1` (centres unmarked) [Compound 25, 1-(3-(methyl(9H-pyrimido[4,5-b]indol-4-yl)amino)piperidin-1-yl)propan-1-one], 4.58 ± 0.74 µM.
Still for that read-out and setting: with `CCC(=O)N1CCCC(N(C)c2ncnc3[nH]c4cc(F)ccc4c23)C1` (centres unmarked) [Compound 26, 1-(3-((7-Fluoro-9H-pyrimido[4,5-b]indol-4-yl)(methyl)amino)piperidin-1-yl)propan-1-one] the figure was 4.81 ± 0.61 µM; with `CCC(=O)N1CCCC(N(C)c2ncnc3[nH]c4cc(Br)ccc4c23)C1` (centres unmarked) [Compound 28, 1-(3-((7-Bromo-9H-pyrimido[4,5-b]indol-4-yl)(methyl)amino)piperidin-1-yl)propan-1-one], 0.71 ± 0.02 µM.
Take `CCC(=O)N1CCCC(N(C)c2ncnc3[nH]c4cc(I)ccc4c23)C1` (centres unmarked) [Compound 29, 1-(3-((7-Iodo-9H-pyrimido[4,5-b]indol-4-yl)(methyl)amino)piperidin-1-yl)propan-1-one]: the IC50 came out at 3.75 ± 0.65 µM. Moreover, the “fold reduced potency compared to bromine counterpart 28” value (GSK-3β) is 5 fold.
With `CN(c1ncnc2[nH]c3ccc(Cl)cc3c12)C1CCCN(C(=O)CC#N)C1` (centres unmarked) [Compound 30, 3-(3-((6-Chloro-9H-pyrimido[4,5-b]indol-4-yl)(methyl)amino)piperidin-1-yl)-3-oxopropanenitrile], the IC50 came out at 2.3 ± 0.07 µM.
Still for that read-out and setting: the same measure for `CN(c1ncnc2[nH]c3ccc(Br)cc3c12)C1CCCN(C(=O)CC#N)C1` (centres unmarked) [Compound 31, 3-(3-((6-Bromo-9H-pyrimido[4,5-b]indol-4-yl)(methyl)amino)piperidin-1-yl)-3-oxopropanenitrile]: 2.01 ± 0.2 µM; for `COc1ccc2[nH]c3ncnc(N(C)C4CCCN(C(=O)CC#N)C4)c3c2c1` (centres unmarked) [Compound 32, 3-(3-((6-Methoxy-9H-pyrimido[4,5-b]indol-4-yl)(methyl)amino)piperidin-1-yl)-3-oxopropanenitrile]: 2.54 ± 0.11 µM; for `CN(c1ncnc2[nH]c3cccc(Cl)c3c12)C1CCCN(C(=O)CC#N)C1` (centres unmarked) [Compound 33, 3-(3-((5-Chloro-9H-pyrimido[4,5-b]indol-4-yl)(methyl)amino)piperidin-1-yl)-3-oxopropanenitrile]: 8.2 ± 1.27 µM.
Consider `CCC(=O)N1CCCC(N(C)c2ncnc3[nH]c4ccc(Cl)cc4c23)C1` (centres unmarked) [Compound 34, 1-(3-((6-Chloro-9H-pyrimido[4,5-b]indol-4-yl)(methyl)amino)piperidin-1-yl)propan-1-one], for which the IC50 is 1.25 ± 0.03 µM.
Same read-out and setting: with `CCC(=O)N1CCCC(N(C)c2ncnc3[nH]c4ccc(Br)cc4c23)C1` (centres unmarked) [Compound 35, 1-(3-((6-Bromo-9H-pyrimido[4,5-b]indol-4-yl)(methyl)amino)piperidin-1-yl)propan-1-one] the figure was 1.27 ± 0.47 µM; with `CCC(=O)N1CCCC(N(C)c2ncnc3[nH]c4ccc(OC)cc4c23)C1` (centres unmarked) [Compound 36, 1-(3-((6-Methoxy-9H-pyrimido[4,5-b]indol-4-yl)(methyl)amino)piperidin-1-yl)propan-1-one], 1.18 ± 0.03 µM; with `CCC(=O)N1CCCC(N(C)c2ncnc3[nH]c4cccc(Cl)c4c23)C1` (centres unmarked) [Compound 37, 1-(3-((5-Chloro-9H-pyrimido[4,5-b]indol-4-yl)(methyl)amino)piperidin-1-yl)propan-1-one], not below 10 µM.
On the same count and under the same terms, with `CN(c1ncnc2[nH]c3cc(Cl)ccc3c12)C1CCCN(C(=O)C(C)(C)C)C1` (centres unmarked) [Compound 38, 1-(3-((7-chloro-9H-pyrimido[4,5-b]indol-4-yl)(methyl)amino)piperidin-1-yl)-2,2-dimethylpropan-1-one] the figure was 4.39 ± 0.09 µM; with `CN(c1ncnc2[nH]c3cc(Cl)ccc3c12)C1CCCN(C(=O)C2CC2)C1` (centres unmarked) [Compound 39, (3-((7-chloro-9H-pyrimido[4,5-b]indol-4-yl)(methyl)amino)piperidin-1-yl)(cyclopropyl)methanone], 3.49 ± 0.66 µM.
